Reference: patent publication US9777003B2, “Tricyclic heterocycles as bet protein inhibitors” (Incyte Corporation, priority 2013, dated 2017)
Structures can show the parent of a compound that is named as a salt.

What was measured:
BRD4-BD1 = BRD4-BD1 (Homo sapiens (Human), UniProt O60885); test: BRD4 AlphaScreen assay, BRD4-BD1; format: binding; conditions: biotin-labeled tetra-acetylated histone H4 peptide, 75 min, room temperature, read-out: BRD4 BD-1 enzyme IC50
Outline: (§1)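 Displacement of 50 nM biotinylated tetra-acetylated H4 peptide (H4Ac4) from BRD4-BD1 (3.8 nM) or BRD4-BD2 (20 nM) in HEPES pH 7.4, 100 mM NaCl, CHAPS, BSA; 75 min at room temperature. Streptavidin donor/GSH acceptor beads were added for a further 75 min in the dark; IC50 from percent control activity versus log concentration.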

BRD4-BD2 = BRD4-BD2 (Homo sapiens (Human), UniProt O60885); test: BRD4 AlphaScreen assay, BRD4-BD2; format: binding; conditions: biotin-labeled tetra-acetylated histone H4 peptide, 75 min, room temperature, read-out: BRD4 BD-2 enzyme IC50
Outline: as §1

## COC1CN(Cc2cccc(Cn3c(C)cc4c3ccc3nnc(C)n34)c2)C1 [Example 54, 6-{3-[(3-methoxyazetidin-1-yl)methyl]benzyl}-1,7-dimethyl-6H-pyrrolo[2,3-e][1,2,4]triazolo[4,3-a]pyridine]
BRD4-BD1
  IC50: 0.1 to 1 µM
BRD4-BD2
  IC50: ≤ 0.1 µM

## Cc1cc2c(cc(NCCCN(C)C)c3nnc(C)n32)n1Cc1ccccc1 [Example 245, N1-(6-Benzyl-1,7-dimethyl-6H-pyrrolo[2,3-e][1,2,4]triazolo[4,3-a]pyridin-4-yl)-N3,N3-dimethylpropane-1,3-diamine]
BRD4-BD1
  IC50: ≤ 0.1 µM
BRD4-BD2
  IC50: ≤ 0.1 µM

## Cc1cc2c(cc(NC(N)=O)c3nnc(C)n32)n1Cc1cccc(Cl)c1 [Example 231, 1-(6-(3-Chlorobenzyl)-1,7-dimethyl-6H-pyrrolo[2,3-e][1,2,4]triazolo[4,3-a]pyridin-4-yl)urea]
BRD4-BD1
  IC50: ≤ 0.1 µM
BRD4-BD2
  IC50: ≤ 0.1 µM

## CN[C@H]1CC[C@H](Nc2cc3c(cc(C)n3Cc3ccccc3)n3c(C)nnc23)CC1 [Example 219, trans-N-(6-Benzyl-1,7-dimethyl-6H-pyrrolo[2,3-e][1,2,4]triazolo[4,3-a]pyridin-4-yl)-N′-methylcyclohexane-1,4-diamine]
BRD4-BD1
  IC50: ≤ 0.1 µM
BRD4-BD2
  IC50: ≤ 0.1 µM

## Cc1nnc2ccc3c(cc(-c4ccn(CCC(=O)NC5COC5)n4)n3Cc3cccc(Cl)c3)n12 [Example 168, 3-{3-[6-(3-Chlorobenzyl)-1-methyl-6H-pyrrolo[2,3-e][1,2,4]triazolo[4,3-a]pyridin-7-yl]-1H-pyrazol-1-yl}-N-oxetan-3-ylpropanamide Trifluoroacetate Salt]
BRD4-BD1
  IC50: ≤ 0.1 µM
BRD4-BD2
  IC50: ≤ 0.1 µM

## CCN1CCC(Nc2cc3c(cc(C)n3Cc3ccccc3)n3c(C)nnc23)CC1 [Example 212, 6-Benzyl-N-(1-ethylpiperidin-4-yl)-1,7-dimethyl-6H-pyrrolo[2,3-e][1,2,4]triazolo[4,3-a]pyridin-4-amine]
BRD4-BD1
  IC50: ≤ 0.1 µM
BRD4-BD2
  IC50: ≤ 0.1 µM

## Cc1cc2c(cc(NC(N)=O)c3nnc(C)n32)n1Cc1cccc(F)c1F [Example 237, 1-(6-(2,3-Difluorobenzyl)-1,7-dimethyl-6H-pyrrolo[2,3-e][1,2,4]triazolo[4,3-a]pyridin-4-yl)urea]
BRD4-BD1
  IC50: ≤ 0.1 µM
BRD4-BD2
  IC50: ≤ 0.1 µM

## CNC(=O)Nc1cc2c(cc(C)n2Cc2cc(Cl)cc(CN3CCCC3)c2)n2c(C)nnc12 [Example 142, N-{6-[3-Chloro-5-(pyrrolidin-1-ylmethyl)benzyl]-1,7-dimethyl-6H-pyrrolo[2,3-e][1,2,4]triazolo[4,3-a]pyridin-4-yl}-N′-methylurea bis(trifluoroacetate) Salt]
BRD4-BD1
  IC50: ≤ 0.1 µM
BRD4-BD2
  IC50: ≤ 0.1 µM

## Cc1nnc2ccc3c(cc(-c4ccn(CCC(=O)N5CCC5)n4)n3Cc3cccc(Cl)c3)n12 [Example 104, 7-[1-(3-azetidin-1-yl-3-oxopropyl)-1H-pyrazol-3-yl]-6-(3-chlorobenzyl)-1-methyl-6H-pyrrolo[2,3-e][1,2,4]triazolo[4,3-a]pyridine]
BRD4-BD1
  IC50: ≤ 0.1 µM
BRD4-BD2
  IC50: ≤ 0.1 µM

## Cc1nnc2ccc3c(cc(C(=O)NCc4ccncc4)n3Cc3ccccc3)n12 [Example 126, 6-Benzyl-1-methyl-N-(pyridin-4-ylmethyl)-6H-pyrrolo[2,3-e][1,2,4]triazolo[4,3-a]pyridine-7-carboxamide bis(trifluoroacetate) Salt]
BRD4-BD1
  IC50: 0.1 to 1 µM
BRD4-BD2
  IC50: 0.1 to 1 µM

## Cc1cc2c(cc(NCC3CCN(C(=O)OC(C)(C)C)CC3)c3nnc(C)n32)n1Cc1ccccc1 [Example 242, tert-Butyl 4-((6-benzyl-1,7-dimethyl-6H-pyrrolo[2,3-e][1,2,4]triazolo[4,3-a]pyridin-4-ylamino)methyl)piperidine-1-carboxylate]
BRD4-BD1
  IC50: 0.1 to 1 µM
BRD4-BD2
  IC50: ≤ 0.1 µM

## Cc1cc2c(cc(NC(N)=O)c3nnc(C)n32)n1Cc1ccccc1F [Example 238, 1-(6-(2-Fluorobenzyl)-1,7-dimethyl-6H-pyrrolo[2,3-e][1,2,4]triazolo[4,3-a]pyridin-4-yl)urea]
BRD4-BD1
  IC50: ≤ 0.1 µM
BRD4-BD2
  IC50: ≤ 0.1 µM

## Cc1nnc2ccc3c(cc(-c4ccn(C)n4)n3Cc3cc(Cl)cc(CN4CCC4)c3)n12 [Example 185, 6-[3-(Azetidin-1-ylmethyl)-5-chlorobenzyl]-1-methyl-7-(1-methyl-1H-pyrazol-3-yl)-6H-pyrrolo[2,3-e][1,2,4]triazolo[4,3-a]pyridine tris(trifluoroacetate) Salt]
BRD4-BD1
  IC50: ≤ 0.1 µM
BRD4-BD2
  IC50: ≤ 0.1 µM

## Cc1cc2c(cc(N[C@H]3CCN(C(=O)OC(C)(C)C)C3)c3nnc(C)n32)n1Cc1ccccc1 [Example 150, tert-butyl (3S)-3-[(6-benzyl-1,7-dimethyl-6H-pyrrolo[2,3-e][1,2,4]triazolo[4,3-a]pyridin-4-yl)amino]pyrrolidine-1-carboxylate]
BRD4-BD1
  IC50: ≤ 0.1 µM
BRD4-BD2
  IC50: ≤ 0.1 µM

## Cc1nnc2ccc3c(cc(-c4ccn(C5CN(CCO)C5)n4)n3Cc3cccc(Cl)c3)n12 [Example 179, 2-(3-{3-[6-(3-Chlorobenzyl)-1-methyl-6H-pyrrolo[2,3-e][1,2,4]triazolo[4,3-a]pyridin-7-yl]-1H-pyrazol-1-yl}azetidin-1-yl)ethanol bis(trifluoroacetate) Salt]
BRD4-BD1
  IC50: ≤ 0.1 µM
BRD4-BD2
  IC50: ≤ 0.1 µM

## Cc1nnc2ccc3c(ccn3Cc3ccccc3)n12 [Example 1, 6-benzyl-1-methyl-6H-pyrrolo[2,3-e][1,2,4]triazolo[4,3-a]pyridine]
BRD4-BD1
  IC50: 0.1 to 1 µM
BRD4-BD2
  IC50: ≤ 0.1 µM

## Cc1nnc2ccc3c(cc(-c4ncco4)n3Cc3cccc(Cl)c3)n12 [Example 194, 6-(3-Chlorobenzyl)-1-methyl-7-(1,3-oxazol-2-yl)-6H-pyrrolo[2,3-e][1,2,4]triazolo[4,3-a]pyridine Trifluoroacetate Salt]
BRD4-BD1
  IC50: ≤ 0.1 µM
BRD4-BD2
  IC50: ≤ 0.1 µM

## Cc1cc2c(cc(Nc3cc[nH]n3)c3nnc(C)n32)n1Cc1ccccc1 [Example 200, 6-Benzyl-1,7-dimethyl-N-1H-pyrazol-3-yl-6H-pyrrolo[2,3-e][1,2,4]triazolo[4,3-a]pyridin-4-amine tris(trifluoroacetate) Salt]
BRD4-BD1
  IC50: ≤ 0.1 µM
BRD4-BD2
  IC50: ≤ 0.1 µM

## Cc1nnc2ccc3c(cc(CCO)n3Cc3ccccc3)n12 [Example 61, 2-(6-benzyl-1-methyl-6H-pyrrolo[2,3-e][1,2,4]triazolo[4,3-a]pyridin-7-yl)ethanol]
BRD4-BD1
  IC50: 1 to 10 µM
BRD4-BD2
  IC50: 0.1 to 1 µM

## Cc1nnc2ccc3c(cc(C(=O)NC(C)(C)C)n3Cc3cccc(Cl)c3)n12 [Example 120, N-(tert-Butyl)-6-(3-chlorobenzyl)-1-methyl-6H-pyrrolo[2,3-e][1,2,4]triazolo[4,3-a]pyridine-7-carboxamide Trifluoroacetate Salt]
BRD4-BD1
  IC50: 0.1 to 1 µM
BRD4-BD2
  IC50: 0.1 to 1 µM

## CCCC(=O)Nc1cc2c(cc(C)n2Cc2ccccc2)n2c(C)nnc12 [Example 267, N-(6-Benzyl-1,7-dimethyl-6H-pyrrolo[2,3-e][1,2,4]triazolo[4,3-a]pyridin-4-yl)butyramide]
BRD4-BD1
  IC50: 0.1 to 1 µM
BRD4-BD2
  IC50: ≤ 0.1 µM

## CCNc1cc2c(cc(C)n2Cc2ccccc2)n2c(C)nnc12 [Example 259, 6-Benzyl-N-ethyl-1,7-dimethyl-6H-pyrrolo[2,3-e][1,2,4]triazolo[4,3-a]pyridin-4-amine]
BRD4-BD1
  IC50: ≤ 0.1 µM
BRD4-BD2
  IC50: ≤ 0.1 µM

## Cc1nnc2ccc3c(cc(-c4cn(CCN5CCOCC5)cn4)n3Cc3ccccc3)n12 [Example 75, 6-benzyl-1-methyl-7-[1-(2-morpholin-4-ylethyl)-1H-imidazol-4-yl]-6H-pyrrolo[2,3-e][1,2,4]triazolo[4,3-a]pyridine]
BRD4-BD1
  IC50: ≤ 0.1 µM
BRD4-BD2
  IC50: ≤ 0.1 µM

## Cc1nnc2ccc3c(cc(-c4cncn4C)n3Cc3ccccc3)n12 [Example 71, 6-benzyl-1-methyl-7-(1-methyl-1H-imidazol-5-yl)-6H-pyrrolo[2,3-e][1,2,4]triazolo[4,3-a]pyridine]
BRD4-BD1
  IC50: 0.1 to 1 µM
BRD4-BD2
  IC50: 1 to 10 µM

## Cc1cc2c(cc(Nc3ccn(C)n3)c3nnc(C)n32)n1Cc1ccccc1 [Example 202, 6-Benzyl-1,7-dimethyl-N-(1-methyl-1H-pyrazol-3-yl)-6H-pyrrolo[2,3-e][1,2,4]triazolo[4,3-a]pyridin-4-amine tris(trifluoroacetate) Salt]
BRD4-BD1
  IC50: ≤ 0.1 µM
BRD4-BD2
  IC50: ≤ 0.1 µM

## Cc1nnc2ccc3c(cc(-c4ncco4)n3Cc3ccccc3)n12 [Example 143, 6-benzyl-1-methyl-7-(1,3-oxazol-2-yl)-6H-pyrrolo[2,3-e][1,2,4]triazolo[4,3-a]pyridine Trifluoroacetate Salt]
BRD4-BD1
  IC50: ≤ 0.1 µM
BRD4-BD2
  IC50: ≤ 0.1 µM

## Cc1nnc2ccc3c(cc(-c4ccn(CCC(=O)N5CCN(C)CC5)n4)n3Cc3cccc(Cl)c3)n12 [Example 105, 6-(3-chlorobenzyl)-1-methyl-7-{1-[3-(4-methylpiperazin-1-yl)-3-oxopropyl]-1H-pyrazol-3-yl}-6H-pyrrolo[2,3-e][1,2,4]triazolo[4,3-a]pyridine]
BRD4-BD1
  IC50: ≤ 0.1 µM
BRD4-BD2
  IC50: ≤ 0.1 µM

## Cc1cc2c(cc(N[C@H]3CC[C@@H](N)CC3)c3nnc(C)n32)n1Cc1ccccc1 [Example 218, cis-N-(6-Benzyl-1,7-dimethyl-6H-pyrrolo[2,3-e][1,2,4]triazolo[4,3-a]pyridin-4-yl)cyclohexane-1,4-diamine]
BRD4-BD1
  IC50: ≤ 0.1 µM
BRD4-BD2
  IC50: ≤ 0.1 µM

## Cc1cc2c(ccc3nnc(C)n32)n1Cc1ccc(CN(C)C)cc1 [Example 53, 1-{4-[(1,7-dimethyl-6H-pyrrolo[2,3-e][1,2,4]triazolo[4,3-a]pyridin-6-yl)methyl]phenyl}-N,N-dimethylmethanamine]
BRD4-BD1
  IC50: 0.1 to 1 µM
BRD4-BD2
  IC50: 0.1 to 1 µM

## Cc1cc2c(ccc3nnc(C)n32)n1Cc1ccccn1 [Example 7, 1,7-dimethyl-6-(pyridin-2-ylmethyl)-6H-pyrrolo[2,3-e][1,2,4]triazolo[4,3-a]pyridine]
BRD4-BD1
  IC50: 0.1 to 1 µM
BRD4-BD2
  IC50: 0.1 to 1 µM

## Cc1nnc2ccc3c(cc(C(=O)NCCO)n3Cc3cccc(Cl)c3)n12 [Example 117, 6-(3-Chlorobenzyl)-N-(2-hydroxyethyl)-1-methyl-6H-pyrrolo[2,3-e][1,2,4]triazolo[4,3-a]pyridine-7-carboxamide Trifluoroacetate Salt]
BRD4-BD1
  IC50: ≤ 0.1 µM
BRD4-BD2
  IC50: ≤ 0.1 µM
